Assay results: the supplement of paper PMC10307832

Legend:
Assay in all cases: relative viability (nuclei count vs DMSO), 5 days (fraction); higher = more cells survive
Ruxolitinib + Decitabine = compound: N#CC[C@H](C1CCCC1)n1cc(-c2ncnc3[nH]ccc23)cn1 [Ruxolitinib] + Nc1ncn([C@H]2C[C@H](O)[C@@H](CO)O2)c(=O)n1 [Decitabine] (partner 2 µM)
Outline: (§1)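 After 5 days of treatment, lung cancer cells in 1536-well plates were fixed and stained in a single step (final 0.05% Triton X-100, 1% formaldehyde, 1 ug/ml Hoechst) and their nuclei counted on 4× images. Treatment had been applied by pin tool the day after seeding as one drug alone or as a fixed anchor-drug dose with five library-drug doses (not always all listed) in √10 steps. Relative viability is the nuclei count of treated wells divided by that of vehicle wells, and values are medians of duplicate plates.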

Vismodegib + OSI-027 = compound: CS(=O)(=O)c1ccc(C(=O)Nc2ccc(Cl)c(-c3ccccn3)c2)c(Cl)c1 [Vismodegib] + COc1cccc2cc(-c3nc([C@H]4CC[C@H](C(=O)O)CC4)n4ncnc(N)c34)[nH]c12 [OSI-027] (partner 0.5 µM)
Outline: as §1

VE-821 + Tozasertib = compound: CS(=O)(=O)c1ccc(-c2cnc(N)c(C(=O)Nc3ccccc3)n2)cc1 [VE-821] + Cc1cc(Nc2cc(N3CCN(C)CC3)nc(Sc3ccc(NC(=O)C4CC4)cc3)n2)n[nH]1 [Tozasertib] (partner 0.1 µM)
Outline: as §1

Ruxolitinib + Linsitinib = compound: N#CC[C@H](C1CCCC1)n1cc(-c2ncnc3[nH]ccc23)cn1 [Ruxolitinib] + C[C@]1(O)C[C@@H](c2nc(-c3ccc4ccc(-c5ccccc5)nc4c3)c3c(N)nccn32)C1 [Linsitinib] (partner 1 µM)
Outline: as §1

Row | Cell Line | relative viability (Ruxolitinib + Decitabine; first compound 0.08 µM) | relative viability (Ruxolitinib + Decitabine; first compound 0.253 µM) | relative viability (Ruxolitinib + Decitabine; first compound 0.8 µM) | relative viability (Ruxolitinib + Decitabine; first compound 2.53 µM) | relative viability (Ruxolitinib + Decitabine; first compound 8 µM) | relative viability (Vismodegib + OSI-027; first compound 0.08 µM) | relative viability (Vismodegib + OSI-027; first compound 0.253 µM) | relative viability (Vismodegib + OSI-027; first compound 0.8 µM) | relative viability (Vismodegib + OSI-027; first compound 2.53 µM) | relative viability (Vismodegib + OSI-027; first compound 8 µM) | relative viability (VE-821 + Tozasertib; first compound 0.08 µM) | relative viability (VE-821 + Tozasertib; first compound 0.253 µM) | relative viability (VE-821 + Tozasertib; first compound 0.8 µM) | relative viability (VE-821 + Tozasertib; first compound 2.53 µM) | relative viability (VE-821 + Tozasertib; first compound 8 µM) | relative viability (Ruxolitinib + Linsitinib; first compound 0.08 µM) | relative viability (Ruxolitinib + Linsitinib; first compound 0.253 µM) | relative viability (Ruxolitinib + Linsitinib; first compound 0.8 µM) | relative viability (Ruxolitinib + Linsitinib; first compound 2.53 µM) | relative viability (Ruxolitinib + Linsitinib; first compound 8 µM)
1 | SW 900 | 0.426 | 0.495 | 0.475 | 0.445 | 0.41 | 0.62 | 0.395 | 0.432 | 0.616 | 0.637 | 0.604 | 0.493 | 0.38 | 0.333 | 0.248 | – | – | – | – | –
2 | NCI-H358 | 0.226 | 0.202 | 0.213 | 0.169 | 0.194 | 0.775 | 0.711 | 0.8 | 0.807 | 0.853 | 0.12 | 0.105 | 0.0999 | 0.0895 | 0.0895 | 0.716 | 0.629 | 0.803 | 0.514 | 0.544
3 | ChaGo-K-1 | 0.515 | 0.529 | 0.52 | 0.447 | 0.478 | 0.663 | 0.546 | 0.554 | 0.619 | 0.516 | 0.219 | 0.248 | 0.219 | 0.201 | 0.22 | – | – | – | – | –
4 | NCI-H1755 | 0.742 | 0.686 | 0.755 | 0.694 | 0.667 | 0.782 | 0.688 | 0.73 | 0.689 | 0.634 | 0.667 | 0.543 | 0.539 | 0.532 | 0.428 | 1 | 0.961 | 0.971 | 0.9 | 0.817
5 | LCLC-103H | 0.83 | 0.775 | 0.802 | 0.656 | 0.658 | 0.462 | 0.461 | 0.364 | 0.476 | 0.476 | 0.505 | 0.424 | 0.389 | 0.458 | 0.362 | 1.2 | 1.24 | 1.25 | 1.04 | 1.03
6 | HCC-827 | – | 0.325 | 0.364 | 0.253 | 0.305 | 0.759 | 0.708 | 0.726 | 0.767 | 0.789 | 0.427 | 0.424 | 0.391 | 0.394 | 0.372 | – | 1.03 | 0.913 | 0.972 | 0.803
7 | HCC-44 | 0.931 | 0.971 | 0.895 | 0.877 | 0.83 | 0.532 | 0.482 | 0.453 | 0.526 | 0.611 | 1.08 | 0.865 | 0.841 | 0.907 | 0.708 | 0.664 | 0.739 | 0.66 | 0.51 | 0.395
8 | NCI-H727 | 0.578 | 0.901 | 0.936 | 0.841 | 0.842 | 0.57 | 0.451 | 0.446 | 0.528 | 0.655 | 0.601 | 0.633 | 0.505 | 0.67 | 0.488 | 0.283 | 0.272 | 0.237 | 0.228 | 0.427
9 | NCI-H1563 | – | – | – | – | – | 0.757 | 0.734 | 0.767 | 0.694 | 0.809 | – | – | – | – | – | 1.18 | 1.21 | 1.25 | 1.16 | 1.09
